Tested on: Carnation
Experiment: Growth of carnation in greenhouses covered with the film
Format: in vivo
Conditions: 1% compound 100 in Film A versus Film B
Description: A three layer LDPE/EVA industrial film is prepared by blow molding having the following structure: 200μ thickness, 50μ EVA 5%, 100μ EVA 14% and 50μ EVA 5%. […] Agricultural Tests Two cultivars, namely ‘Jack’ and ‘Samuela’, have been grown under two greenhouses one with film A and the other with film B. The cultivation started on the 18 Sep. 2001 and harvesting started on the 3, Oct. 2001. The cultivation conditions are the standard conditions used in the region.

## CN(C)c1ccc(C=C2C(=O)NC(=O)NC2=O)cc1 [compound 100, condensation product of 4-dimethylaminobenzaldehyde and barbituric acid]
  effect on the production and quality of carnation: evident

— patent publication US7037962B2, “Composition and process for enhancing bio-mass production in greenhouses” (Ciba Specialty Chemicals Corp., priority 2002, dated 2006)
